Reference: US20260182575A1, “MOLECULES HAVING PESTICIDAL UTILITY AND INTERMEDIATES AND PROCESSES RELATED THERETO” (CORTEVA AGRISCIENCE LLC, priority 2022, published 2026)
Values joined by “and” are separate entries in the source; they are usually repeats but may differ in a detail not shown here. Equal entries are not always repeated.

Experiments:
[1] = system: Green Peach Aphid (Myzus persicae, MYZUPE, GPA); test: Bioassay 1: green peach aphid, cabbage seedling foliar spray; format: in vivo; details: for Average % Control AI: 3 days
Experimental: Bioassay 1: Green Peach Aphid (Myzus persicae, MYZUPE, “GPA”).
Stock solutions of F1 and various active ingredients were prepared initially at a concentration of 4 milligrams per milliliter (mg/mL) for F1 and 0.1 mg/mL for the active ingredients, respectively, using a 1:1 mixture of acetone:methanol as a diluent. Stock solutions were prepared with F1 as well as for each of the active ingredients individually. Test solutions were prepared from the stock solutions. Test solutions were prepared containing F1, the individual active ingredients, and mixtures of F1 with each of the active ingredients. The test solutions for F1 and the individual active ingredients were prepared by adding 750 microliters (μL) of stock solution to a 25 mL glass vial, then adding 750 μL of 1:1 acetone:methanol solvent, followed by the addition of 13.5 mL water with 0.025% Tween® 20 to create a 0.0005% (weight/volume (w/v)) solution. The test solutions containing mixtures of F1, and the individual active ingredients were prepared by adding 750 μL of the active ingredient stock solution to a 25 mL glass vial, followed by 750 μL of the F1 stock solution, then by the addition of 13.5 mL water with 0.025% Tween® 20 to create a test solution containing 0.0005% (w/v) F1 and 0.0005% (w/v) of the active ingredient. Each test solution was serially diluted to create desired doses of test solutions (0.0005% (w/v), 0.000125% (w/v), 0.00003125% (w/v), 0.0000078% (w/v), 0.00000195% (w/v), and 0.0000005% (w/v)). In test solutions containing mixtures of F1 and the active ingredients, the active ingredients were diluted as described above, but the concentration of F1 was held constant (0.04% (w/v)).
The test solutions were tested against GPA using the following procedure: cabbage seedlings, grown in 3-inch pots with 2-3 small (3-5 centimeter (cm)) true leaves, were used as test substrate. The seedlings were infested with 20-50 GPA (wingless adult and nymph stages) one day prior to chemical application. Four pots with individual seedlings were used for each treatment. A hand-held aspirator-type sprayer was used for spraying a solution to both sides of […] leaves until runoff. Reference plants (solvent check) were sprayed with the diluent only (0.025% Tween® 20 and 10% acetone:methanol (1:1) in water). Treated plants were held in a holding room for three days at approximately 25° C. and ambient relative humidity (RH about 20% to about 45%) prior to grading. Evaluation was conducted by counting the number of live aphids per plant under a microscope three days after treatment. Percent control was measured using Abbott's correction formula (W. S. Abbott, J. Econ. Entomol. 18 (1925), pp. 265-267) as follows:
where X=No. of live aphids on solvent check plants and Y=No. of live aphids on treated plants. In Table B1 the “Expected % Control” was calculated using the method described in Colby S. R., Weeds, 1967, 15, 20-22. Bioassay 2: Sweet Potato Whitefly (Bemisia tabaci, BEMITA, “SPW”).

[2] = system: Brown Planthopper (Nilaparvata lugens, NILALU, BPH); test: Bioassay 6: brown planthopper, sprayed rice seedlings; format: in vivo; details: AI alone, AI Rate 0.049 g/ha, 6 days
Experimental: At these rates, F1 and the individual active ingredients were tested at a ratio of 1:1. […] F1 and triflumezopyrim were tested at a ratio of 16:1. Test solutions were prepared containing F1, the individual active ingredients, and mixtures of F1 with each of the active ingredients. Test solutions were prepared by weighing 5 mg of each test chemistry (either alone or in combination depending on the treatment) into a 25 mL glass vial. Next, 1 mL of acetone was added to each vial to dissolve the test chemistries, followed by 19 mL of water with 0.125% Tween 20 adjuvant. This test solution represented the 50 g/ha treatment, which was then serially diluted four-fold to create the three lower rates of 12.5, 3.125, and 0.78 g/ha. Triflumezopyrim was prepared in a similar manner, but two additional serial dilutions were conducted to create solutions representing 6 rates of 12.5, 3.125, 0.78, 0.19, 0.049, and 0.012 g/ha. The higher two doses were discarded, and the four lower doses were used for testing. Each rate was replicated four times, and solvent blanks were used as control treatments.
Five (5) rice seedlings (10-12 days old) planted in 3-inch pots were used as test plants. Rice seedlings were grown in soil and the soil was covered with a 2% agar solution. The test solutions were applied to test plants using a Devries laboratory research sprayer, set to spray at 200 liters per hectare (L/ha) using a TeeJet hollow cone nozzle. Following application, the rice seedlings were dried for 1 hour, after which a single clear plastic tube (2 inches in diameter×12 inches in height) was placed over the seedlings in each pot. The tube was pushed down into the agar to create a sealed test chamber. The agar prevented insects from hiding in the soil and made adult collection and grading easier. Ten to fifteen (10-15) 5th instar BPH nymphs were transferred to each test chamber using a vacuum aspirator. Immediately following BPH infestation, the test chamber was covered with a piece of grade 90 cheesecloth and secured with a rubber band, sealing the test chamber. The test chambers were held at 25° C. for 6 days, after which the total number of live insects was counted in each test chamber. Percent control was measured using Abbott's correction formula (W. S. Abbott, J. Econ. Entomol. 18 (1925), pp. 265-267) as follows:
where X=No. of live insects on solvent check and Y=No. of live insects in treated chambers. In Table B6 the “Expected % Control” was calculated using the method described in Colby S. R., Weeds, 1967, 15, 20-22. Bioassay 7: Corn Earworm (Helicoverpa zea, HELIZE, “CEW”), Fall Armyworm (Spodoptera frugiperda, LAPHFR, “FAW”), Beet Armyworm (Spodoptera exigua, LAPHEG, “BAW”),and Soybean Looper (Chrysodeixis includens, PSEPIN, “SBL”).

[3] = AI alone at the rate of Wt Ratio F1:AI 1:640 (F1 0.04)
[4] = AI alone at the rate of Wt Ratio F1:AI 1:40000 (F1 0.04)
[5] = AI alone at the rate of Wt Ratio F1:AI 1:2564 (F1 0.04)

Compound	Average % Control AI [1, 4] [%]	Average % Control AI [2] [%]	also measured
CC1=NNC(=O)N(/N=C/c2cccnc2)C1 [Pymetrozine]	15.4		Average % Control AI [1, 3]: 47.6%
Cc1ccc(COCC(F)(F)F)c(N2C(=O)CS/C2=N\C(=O)Nc2ccc(-c3ncn(-c4ccc(OC(F)(F)F)cc4)n3)cc2F)c1 [F1]			Average % Control F1 ([1]; F1 alone, Wt % 0.04 (10^-6), cabbage spray, 3 days after treatment): 8.8% and 7.1% and 15.8%
CON=CNC(=O)c1ccc(C2=NOC(c3cc(Cl)cc(Cl)c3)(C(F)(F)F)C2)cc1C (stereo not shown) [Fluxametamide]		42.3	Average % Control AI [1, 5]: 23.1%
Chlorfenapyr			Average % Control AI [1, 5]: 10.1%
Cc1c(COC(=O)[C@@H]2[C@H](/C=C(\Cl)C(F)(F)F)C2(C)C)cccc1-c1ccccc1 (racemic) [Bifenthrin]	16.3		
CN1COCN(Cc2cnc(Cl)s2)/C1=N\[N+](=O)[O-] [Thiamethoxam]	0.0		Average % Control AI ([1]; AI alone at the rate of Wt Ratio F1:AI 1:10256 (F1 0.04)): 8.5%
C[C@]1(COC(=O)C2CC2)[C@@H]2C[C@H](O)[C@@]3(C)Oc4cc(-c5cccnc5)oc(=O)c4[C@H](O)[C@@H]3[C@@]2(C)CC[C@@H]1OC(=O)C1CC1 [Afidopyropen]		11.4	
COC(=O)N(C(=O)N1CO[C@@]2(C(=O)OC)Cc3cc(Cl)ccc3C2=N1)c1ccc(OC(F)(F)F)cc1 [Indoxacarb]	0.0	1.2	Average % Control AI [1, 3]: 10.1%
